Measured values published in US8455649B2, “Insecticidal substituted azinyl derivatives” (Dow AgroSciences, LLC, priority 2007, dated 2013).
Read-outs that look alike come from different tables or passages of the source.

What was measured:
[1] = test system: Corn Earworm (Helicoverpa zea); experiment: Insecticidal diet-surface test for corn earworm; assay type: in vivo; conditions: 120 h, read-out: HELIZE AVG % Mortality (50 μg/cm^2)
Description: (§1) The compounds identified in Table 1 were tested against beet armyworm and corn earworm as follows:
(§2) Insecticidal Test for Corn Earworm (Helicoverpa zea) and Beet Armyworm (Spodoptera exigua).
(§3) To prepare test solution, the test compound was formulated at 2000 ppm solution as 4 mg/2 mL of 9 acetone:1 tap water. 50 μL of the 2000 ppm (equivalent to 50 μg/cm^2 dose on diet surface area) test solution was pipetted upon the surface of 1 mL of lepidopteran diet (Southland Multi-Species Lepidopteran Diet) contained in each of eight wells per insect species (one well=1 replication). A second-instar corn earworm and beet armyworm was placed upon the treated diet in each well once the solvent had air-dried. Trays containing the treated diet and larvae were covered and then held in a growth chamber at 25° C., 50-55% RH, and 16 hr light:8 hr dark for 5 days. Observation were conducted 5 days after treatment and infestation. The number of dead insects of 8 per species per treatment was then determined and the results are given in Table 2 as a percent control at a dose of […].

[2] = test system: Beet Armyworm (Spodoptera exigua); experiment: Insecticidal diet-surface test for beet armyworm; assay type: in vivo; conditions: 120 h, read-out: LAPHEG AVG % Mortality (50 μg/cm^2)
Description: as §1, §2, §3

[3] = second-instar larvae on treated diet, 50 μg/cm^2 on diet surface, 5 days after treatment, 8 insects per treatment

| SMILES | mortality at 50 µg/cm2 [1, 3] [%] | mortality at 50 µg/cm2 [2, 3] [%] | mortality at 50 µg/cm2 [1] [%] | mortality at 50 µg/cm2 [2] [%] |
| --- | --- | --- | --- | --- |
| COCCN(C(=O)Nc1nc(OCC(F)(F)F)cc(OCC(F)(F)F)n1)c1ccc(OC(F)(F)F)cc1 [Compound 50] | 100 | 100 |  |  |
| CC(C)(C)COCN(C(=O)N(COCc1ccccc1)c1nc(OCC(F)(F)F)cc(OCC(F)(F)F)n1)c1ccc(C(F)(F)F)cc1 [Compound 51] | 0 | 100 |  |  |
| COCCOCN(C(=O)N(COCc1ccccc1)c1nc(OCC(F)(F)F)cc(OCC(F)(F)F)n1)c1ccc(C(F)(F)F)cc1 [Compound 52] | 100 | 100 |  |  |
| CC(C)OCN(C(=O)Nc1nc(OCC(F)(F)F)cc(OCC(F)(F)F)n1)c1ccc(C(F)(F)F)cc1 [Compound 53] | 100 | 100 |  |  |
| O=C(Nc1ccc(I)cc1)Nc1nc(OCC(F)(F)F)cc(OCC(F)(F)F)n1 [Compound 54] | 100 | 100 |  |  |
| N#Cc1ccc(NC(=O)Nc2nc(OCC(F)(F)F)cc(OCC(F)(F)F)n2)cc1Cl [Compound 55] |  |  | 100 | 0 |
| O=C(Nc1ccc([N+](=O)[O-])cc1)Nc1nc(OCC(F)(F)F)cc(OCC(F)(F)F)n1 [Compound 56] | 100 | 0 |  |  |
| CSc1ccc(NC(=O)Nc2nc(OCC(F)(F)F)cc(OCC(F)(F)F)n2)cc1 [Compound 57] | 100 | 0 |  |  |
| O=C(Nc1ccc(SC(F)(F)F)cc1)Nc1nc(OCC(F)(F)F)cc(OCC(F)(F)F)n1 [Compound 58] | 100 | 100 |  |  |
| O=C(Nc1ccc(S(=O)(=O)C(F)(F)F)cc1)Nc1nc(OCC(F)(F)F)cc(OCC(F)(F)F)n1 [Compound 59] | 100 | 0 |  |  |
| CC(C)(C)COCN(C(=O)Nc1nc(OCC(F)(F)F)cc(OCC(F)(F)F)n1)c1ccc(C(F)(F)F)cc1 [Compound 61] | 100 | 100 |  |  |
| COCCOCN(C(=O)Nc1nc(OCC(F)(F)F)cc(OCC(F)(F)F)n1)c1ccc(C(F)(F)F)cc1 [Compound 62] | 100 | 100 |  |  |
| O=C(Nc1ccc(Br)cc1)N(COCc1ccccc1)c1nc(OCC(F)(F)F)cc(OCC(F)(F)F)n1 [Compound 63] | 100 | 100 |  |  |
| O=C(Nc1nc(OCC(F)(F)F)cc(OCC(F)(F)F)n1)N(O)c1ccc(Cl)cc1 [Compound 64, N′-[4,6-bis(2,2,2-trifluoroethoxy)pyrimidin-2-yl]-N-(4chlorophenyl)-N-hydroxyurea] | 100 | 100 |  |  |
| CON(C(=O)Nc1nc(OCC(F)(F)F)cc(OCC(F)(F)F)n1)c1ccc(Cl)cc1 [Compound 65, N′-[4,6-bis(2,2,2-trifluoroethoxy)pyrimidin-2-yl]-N-(4-chlorophenyl)-N-methoxyurea] | 100 | 100 |  |  |
| CC(C)OCN(C(=O)N(COCc1ccccc1)c1nc(OCC(F)(F)F)cc(OCC(F)(F)F)n1)c1ccc(Br)cc1 [Compound 66] | 100 | 100 |  |  |
| CCOCN(C(=O)N(COCc1ccccc1)c1nc(OCC(F)(F)F)cc(OCC(F)(F)F)n1)c1ccc(Br)cc1 [Compound 67] | 100 | 100 |  |  |
| COCN(C(=O)N(COCc1ccccc1)c1nc(OCC(F)(F)F)cc(OCC(F)(F)F)n1)c1ccc(Br)cc1 [Compound 68] | 100 | 100 |  |  |
| CC(C)N(C(=O)Nc1nc(OCC(F)(F)F)cc(OCC(F)(F)F)n1)c1ccc(OC(F)(F)F)cc1 [Compound 69] | 100 | 100 |  |  |
| CN(C)CCN(C(=O)Nc1nc(OCC(F)(F)F)cc(OCC(F)(F)F)n1)c1ccc(OC(F)(F)F)cc1 [Compound 70] | 100 | 100 |  |  |

| SMILES | mortality at 50 µg/cm2 [1, 3] [%] | mortality at 50 µg/cm2 [2, 3] [%] | mortality at 50 µg/cm2 [1] [%] | mortality at 50 µg/cm2 [2] [%] |
| --- | --- | --- | --- | --- |
| CN(C(=O)Nc1nc(OCC(F)(F)F)cc(OCC(F)(F)F)n1)c1ccc(OCC(F)F)cc1 [Compound 71] | 100 | 100 |  |  |
| O=C(Nc1ccc(Br)c(F)c1)Nc1nc(OCC(F)(F)F)cc(OCC(F)(F)F)n1 [Compound 72] | 100 | 0 |  |  |
| CCOCN(C(=O)Nc1nc(OCC(F)(F)F)cc(OCC(F)(F)F)n1)c1ccc(Br)cc1 [Compound 74] | 100 | 100 |  |  |
| O=C(Nc1cc(F)c(C(F)(F)F)c(F)c1)Nc1nc(OCC(F)(F)F)cc(OCC(F)(F)F)n1 [Compound 76] | 100 | 100 |  |  |
| N#CCN(C(=O)Nc1nc(OCC(F)(F)F)cc(OCC(F)(F)F)n1)c1ccc(OC(F)(F)F)cc1 [Compound 77] | 100 | 100 |  |  |
| O=C(Nc1ccc(C(F)(F)F)c(F)c1)Nc1nc(OCC(F)(F)F)cc(OCC(F)(F)F)n1 [Compound 78] | 100 | 100 |  |  |
| CN(C(=O)Nc1nc(OCC(F)(F)F)cc(OCC(F)(F)F)n1)c1ccc([N+](=O)[O-])cc1 [Compound 79] | 100 | 100 |  |  |
| CN(C(=O)Nc1nc(OCC(F)(F)F)cc(OCC(F)(F)F)n1)c1ccc(SC(F)(F)F)cc1 [Compound 80] | 100 | 100 |  |  |
| CN(C(=O)Nc1nc(OCC(F)(F)F)cc(OCC(F)(F)F)n1)c1ccc(I)cc1 [Compound 81] | 100 | 100 |  |  |
| COC(=O)c1ccc(N(C)C(=O)Nc2nc(OCC(F)(F)F)cc(OCC(F)(F)F)n2)cc1 [Compound 82] | 0 | 100 |  |  |
| CN(C(=O)Nc1nc(OCC(F)(F)F)cc(OCC(F)(F)F)n1)c1ccc(C#N)cc1 [Compound 83] | 100 | 100 |  |  |
| CN(C(=O)Nc1nc(OCC(F)(F)F)cc(OCC(F)(F)F)n1)c1ccc(Br)c(Cl)c1 [Compound 84] | 100 | 100 |  |  |
| CN(C(=O)Nc1nc(OCC(F)(F)F)cc(OCC(F)(F)F)n1)c1ccc(Cl)c(Cl)c1 [Compound 85] | 100 | 100 |  |  |
| CN(C(=O)Nc1nc(OCC(F)(F)F)cc(OCC(F)(F)F)n1)c1ccc(F)cc1 [Compound 86] | 100 | 100 |  |  |
| O=C(Nc1ccc(C(F)(F)F)nc1)N(COCc1ccccc1)c1nc(OCC(F)(F)F)cc(OCC(F)(F)F)n1 [Compound 87] | 100 | 100 |  |  |
| CCOCN(C(=O)N(COCc1ccccc1)c1nc(OCC(F)(F)F)cc(OCC(F)(F)F)n1)c1ccc(C(F)(F)F)nc1 [Compound 88] | 100 | 100 |  |  |
| COCN(C(=O)N(COCc1ccccc1)c1nc(OCC(F)(F)F)cc(OCC(F)(F)F)n1)c1ccc(C(F)(F)F)nc1 [Compound 89] | 100 | 100 |  |  |
| CCOCN(C(=O)Nc1nc(OCC(F)(F)F)cc(OCC(F)(F)F)n1)c1ccc(C(F)(F)F)nc1 [Compound 90] | 100 | 100 |  |  |
| COCN(C(=O)Nc1nc(OCC(F)(F)F)cc(OCC(F)(F)F)n1)c1ccc(C(F)(F)F)nc1 [Compound 91] | 100 | 100 |  |  |
| CN(C(=O)Nc1nc(OCC(F)(F)F)cc(OCC(F)(F)F)n1)c1ccc(C#N)c(Cl)c1 [Compound 92] |  |  | 100 | 100 |
